A short description of assay [1]: Dose required to induce 90% death rate for C6 glioma cells from rats. The format is functional, Rattus norvegicus.
The next assay has as its system C6. As to the kind of experiment: Survival rates when cells were incubated for 5 hr without light. Type of assay: functional, Rattus norvegicus.
Another assay relates to HT-29. In words: Compound was tested for in vivo photo-sensitizing activity on human colon adenocarcinoma cell (HT-29). The format is functional.

Structures are written as SMILES.

In general, Inhibition refers to the relative decrease from the control value, in per cent. For the compound `Oc1cc(O)cc(-c2c3nc(cc4ccc([nH]4)c(-c4cc(O)cc(O)c4)c4ccc(cc5nc2CC5)[nH]4)C=C3)c1`, in assay [1], the LD90 is 4.8 µg/mL. Further, the Survival with C6 came to 100%. Also, in the assay on HT-29, the Inhibition was 40%.

Source of the values: ChEMBL document CHEMBL1136614, “Hydroporphyrins as tumour photosensitizers: synthesis and photophysical studies of 2,3-dihydro-5,15-di(3,5-dihydroxyphenyl) porphyrin” (2003).
